The values below come from patent publication US5952333A, “Quinazoline derivative” (Zeneca Limited, priority 1995, dated 1999).

What is called IC50 is the concentration needed to halve the response being measured. Read a high IC50 as weaker potency.

Experiment [1] deals with T1, EGF receptor tyrosine kinase (Homo sapiens, UniProt P00533).
T1 construct: Receptor tyrosine kinase was obtained in partially purified form from A431 cells; endogenous in cells; host or cells: A431 cells (human vulval carcinoma); Triton X-100-solubilised membrane fraction
The experiment is described as follows: In vitro inhibition of the enzyme EGF receptor tyrosine kinase (test (a)). It counts as biochemical. To be noted: approximate value, enzyme partially purified from A431 cells, with EGF, 25° C., 10 minutes. On the procedure: (a) An in vitro assay which determines the ability of a test compound to inhibit the enzyme EGF receptor tyrosine kinase. Receptor tyrosine kinase was obtained in partially purified form from A431 cells (derived from human vulval carcinoma) by the procedures described below which are related to those described by Carpenter et al., J. Biol. Chem., 1979, 254,4884, Cohen et al., J. Biol. Chem, 1982, 257, 1523 and by Braun et al., J. Biol. Chem., 1984, 259, 2051.
A-431 cells were grown to confluence using Dulbecco's modified Eagle's medium (DMEM) containing 5% fetal calf serum (FCS). The obtained cells were homogenised in a hypotonic borate/EDTA buffer at pH 10.1. The homogenate was centrifuged at 400 g for 10 minutes at 0-4° C. The supernatant was centrifuged at 25,000 g for 30 minutes at 0-4° C. […]
The test compound/EGF mixture solution (5 μl) was added to the test enzyme solution (10 μl) and the mixture was incubated at 0-4° C. for 30 minutes. […] Radioactivity present in the filter paper was measured using a liquid scintillation counter (Sequence A). […]
Receptor tyrosine kinase inhibition was calculated as follows: [formula]
The extent of inhibition was then determined at a range of concentrations of test compound to give an IC50 value.

The subject of experiment [2] is human naso-pharyngeal cancer cell line KB. In words: In vitro inhibition of the EGF-stimulated growth of the human naso-pharyngeal cancer cell line KB (test (b)). It counts as cell-based. To be noted: 72 h, approximate value, KB cells, EGF (10 ng/ml), 3 days, MTT. On the procedure:
(b) An in vitro assay which determines the ability of a test compound to inhibit the EGF-stimulated growth of the human naso-pharyngeal cancer cell line KB.
KB cells were seeded into wells at a density of 1×10^4 -1.5×10^4 cells per well and grown for 24 hours in DMEM supplemented with 5% FCS (charcoal-stripped). Cell growth was determined after incubation for 3 days by the extent of metabolism of MTT tetrazolium dye to furnish a bluish color. Cell growth was then determined in the presence of EGF (10 ng/ml) or in the presence of EGF (10 ng/ml) and a test compound at a range of concentrations. An IC50 value could then be calculated.

Experiment [3] deals with xenografts of the human vulval epidermoid carcinoma cell line A431. The experiment is described as follows: In vivo inhibition of growth of A431 xenografts in athymic nude mice (test (c)). More on the design: species or system athymic nude mice (strain ONU:Alpk); human tumour. To be noted: approximate, daily dose of 50 mg/kg, usually orally, once daily, usually 13 days, relative to untreated controls. On the procedure:
(c) An in-vivo assay in a group of athymic nude mice (strain ONU:Alpk) which determines the ability of a test compound (usually administered orally as a ball-milled suspension in 0.5% polysorbate) to inhibit the growth of xenografts of the human vulval epidermoid carcinoma cell line A431. A431 cells were maintained in culture in DMEM supplemented with 5% FCS and 2 mM glutamine. Freshly cultured cells were harvested by trvpsinization and injected subcutaneously (10 million cells/0.1 ml/mouse) into both flanks of a number of donor nude mice. When sufficient tumour material was available (after approximately 9 to 14 days), fragments of tumour tissue were transplanted in the flanks of recipient nude mice (test day 0). Generally, on the seventh day after transplantation (test day 7) groups of 7 to 10 mice with similar-sized tumours were selected and dosing of the test compound was commenced. Once daily dosing of test compound was continued for a total of 13 days (test days 7 to 19 inclusive). In some studies the dosing of the test compound was continued beyond test day 19, for example to test day 26. In each case. on the following test day the animals were killed and the final tumour volume was calculated from measurements of the length and width of the tumours. Results were calculated as a percentage inhibition of tumour volume relative to untreated controls.

Experiment [4] concerns human mammary carcinoma which expresses EGF receptor tyrosine kinase. To be noted: athymic nude mice; Toi et al., 1990; cited from earlier work.

T1 sequence (P00533 25-1210): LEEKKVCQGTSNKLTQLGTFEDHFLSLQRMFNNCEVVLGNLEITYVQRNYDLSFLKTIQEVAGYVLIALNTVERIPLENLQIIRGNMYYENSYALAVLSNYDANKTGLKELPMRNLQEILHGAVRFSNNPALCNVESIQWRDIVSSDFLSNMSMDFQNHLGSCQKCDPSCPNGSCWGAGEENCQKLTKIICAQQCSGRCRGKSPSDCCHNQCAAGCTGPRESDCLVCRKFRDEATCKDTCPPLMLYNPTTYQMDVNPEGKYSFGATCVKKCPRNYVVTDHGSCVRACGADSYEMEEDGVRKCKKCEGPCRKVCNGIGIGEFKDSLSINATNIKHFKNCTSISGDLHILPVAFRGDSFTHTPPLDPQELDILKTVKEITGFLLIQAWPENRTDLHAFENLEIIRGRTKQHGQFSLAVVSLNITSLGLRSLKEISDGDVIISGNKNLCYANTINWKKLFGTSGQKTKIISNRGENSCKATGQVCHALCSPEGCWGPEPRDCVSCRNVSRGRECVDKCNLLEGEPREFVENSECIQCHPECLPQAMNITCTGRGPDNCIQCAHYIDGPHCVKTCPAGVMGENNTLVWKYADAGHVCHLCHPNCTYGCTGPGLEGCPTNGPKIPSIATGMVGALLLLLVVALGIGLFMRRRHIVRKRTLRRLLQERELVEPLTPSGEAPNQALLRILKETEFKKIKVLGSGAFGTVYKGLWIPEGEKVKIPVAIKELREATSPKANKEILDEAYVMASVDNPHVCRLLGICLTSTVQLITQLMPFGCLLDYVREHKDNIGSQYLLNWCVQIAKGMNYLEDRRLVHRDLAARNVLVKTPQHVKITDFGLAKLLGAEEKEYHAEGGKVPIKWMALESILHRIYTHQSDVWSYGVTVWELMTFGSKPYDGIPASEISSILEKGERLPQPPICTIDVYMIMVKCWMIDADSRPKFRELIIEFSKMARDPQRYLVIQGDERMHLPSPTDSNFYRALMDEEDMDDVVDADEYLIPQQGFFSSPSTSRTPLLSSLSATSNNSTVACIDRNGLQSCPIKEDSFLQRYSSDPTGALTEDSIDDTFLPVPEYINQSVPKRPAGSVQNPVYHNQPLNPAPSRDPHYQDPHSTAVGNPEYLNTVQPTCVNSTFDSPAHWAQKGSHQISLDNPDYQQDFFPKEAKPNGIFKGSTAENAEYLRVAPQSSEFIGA

On to `COCCNc1cc2c(Nc3cccc(C)c3)ncnc2cc1OC` [compound of the invention, 6-(2-methoxyethylamino)-7-methoxy-4-(3'-methylanilino)quinazoline], for which the half-maximal inhibitory concentration (IC50) in experiment [1] is around 10 nM; in experiment [2] it was around 200 nM. In addition, in experiment [3], the “inhibition of tumour volume” value is given as around 50%.

For `O=CN/C=C/c1cc(O)ccc1O` [erbstatin], the “growth of transplanted human mammary carcinoma which expresses EGF receptor tyrosine kinase” value in experiment [4] is listed as “specifically attenuates the growth”.
